Experimental data as given in patent publication US11759492B2, “Extract from a plant of the genus Boswellia and related products and uses” (Alpinia Laudanum Institute of Phytopharmaceutical Sciences …, priority 2014, dated 2023).

Tested on: HepG2 cells
Assay: Determination of reactive oxygen species (ROS) in HepG2 indicator cells (ROS-Glo system)
Format: cell-based
Details: two hours or four hours of incubation, FIG. 4 and 5
Procedure: The potential of Boswellia extract BSR037: LN00125 (Example 12) and Boswellia extract BSR037: LN00126 (Example 15) of inducing reactive oxygen species (ROS) was tested. The effects were compared with ROS generation upon exposure to positive control Menadione as well as two solvent ethanol. To this end, HepG2 cells were incubated in presence of different concentrations of the respective Boswellia extract for two hours. ROS levels were determined by using the ROS-Glo system (Promega). HepG2 cells were seeded in […] flat-bottom black microtiter plates at a density of 10000 cells per well, 100 μl per well, and allowed to attach to the plate for 24 hours. Test item dilutions were prepared in separate plates. The maximum concentration was a 1:100 dilution in media (final solvent concentration: 1% ethanol) followed by a 1:3 serial dilution in media containing 1% ethanol. […] Cells exposed to media containing 1% ethanol served as untreated control. After overnight adherence, media was completely removed from cells by vacuum aspiration and 80 μl of compound dilution, positive and negative controls were added to the cells. Test items were tested in two replicates per concentration (A and B). In independent experiments, ROS levels were measured after two hours of incubation (see FIG. 4A-D) or after four hours of incubation (see FIG. 5A-D), respectively).

## CC1=CC(=O)c2ccccc2C1=O [Menadione]
  ROS induction: ROS induction was detected
